Source: patent US12152049B2, “STING agonistic compound” (ONO PHARMACEUTICAL CO., LTD., priority 2018, dated 2024)
Where a name gives a salt, the structure may show the parent alone.

What was measured:
[1] = test system: mouse colon cancer cell line MC38; test: Anti-tumor effect in tumor model bearing subcutaneous mouse colon cancer cell line MC38; type: in vivo, mice (C57/BL6); details: 3 mg/kg, administered 7 days after MC38 transplantation, measured until Day 26
Method: Colon cancer cell line MC38 derived from C57/BL6 mice were subcutaneously transplanted to right flank of syngeneic mice (C57/BL6, female, 6 weeks old (Charles River Japan)) (herein, the day of transplantation was Day 0) to prepare tumor mice bearing subcutaneous MC38. Seven days after transplantation, tumor mice bearing subcutaneous MC38 were grouped based on tumor volume, and used as the Vehicle group (n=8) and the compound administration group (3 mg/kg, n=6) shown in Example 1. The changes in tumor volume were continuously measured until the 26 days after transplantation (Day 26). The tumor volume was calculated by the following formula: [Tumor volume (mm^3)]=[major axis (mm)]×[minor axis (mm)]^2×0.5
Colon cancer cell line MC38 derived from C57/BL6 mice were subcutaneously transplanted to right flank of syngeneic mice (C57/BL6, female, 6 weeks old (Charles River Japan)) (herein, the day of transplantation was Day 0) to prepare tumor mice bearing subcutaneous MC38. They were grouped based on tumor volume 7 or 8 days after transplantation, to which the Vehicle (n=8 or 6) and the respective compounds of Examples 10 and 10(1) to 10(6) (1, 1, 1, 10, 3, 1 and 1 mg/kg, n=8 or 6) were administered. The changes in tumor volume were measured serially until the 28 or 30 days after transplantation (Day 28 or 30). The tumor volume was calculated from the formula shown in Example 16.

THP1-Dual cells = test: Effects on THP1-Dual cells: activation of the IRF pathway (Quanti-luc luminescence); type: cell-based; details: Homo sapiens, incubation about 24 hours
Method: THP1-Dual cells (Invivogen) were suspended in RPMI medium to prepare 2×10^6 cells/mL of cell suspension. 50 μL of the cell suspensions were dispensed into a 96-well plate, to which 50 μL of 6 to 20,000 nmol/L compound solutions were added. After adding the compound, the mixture was incubated at 37° C. for about 24 hours. After incubation, 10 μL of cell suspensions were collected from the respective wells, which were mixed with 50 μL of Quanti-luc (Invivogen). Then, the activation of the IRF (Interferon regulatory factor) pathway was measured by detecting luminescence using a microplate reader (Molecular Devices).

[2] = test system: BTK, KDR, each subtype of PKCα to ι, each CDK of CDK2 to 9, FAK, TIE2, RAF1 and BRAF; test: Evaluation of inhibitory activity against various kinases (mobility shift, LabChip); type: biochemical; details: 4 μmol/L test substance solution (4 times the final concentration)
Method: 4 μmol/L of test substance solution (the compound of the present invention shown in Example 1) (at 4 times the final concentration) was prepared by dissolving it to the assay buffer (20 mmol/L HEPES, 0.01% Triton X-100, 1 mmol/L DTT, pH 7.5). 4 μmol/L of substrate/ATP/metal solution (at 4 times the final concentration) was prepared by dissolving them to the kit buffer (20 mmol/L HEPES, 0.01% Triton X-100, 5 mmol/L DTT, pH 7.5).
Various kinase solutions at twice the final concentration were prepared by dissolving them to the assay buffer. 5 μL of the test substance solution, 5 μL of the substrate/ATP/metal solution and 10 μL of the kinase solution were mixed in wells of a polypropylene 384-well plate, of which the mixture was reacted at room temperature for 1 to 5 hours. The reaction was stopped by adding 70 μL of the termination buffer (QuickScout Screening Assist MSA; Cama Biosciences). The substrate peptide and phosphorylated peptide in the reaction solution were separated and quantified by LabChip system (Perkin Elmer). The kinase reaction was evaluated by the product ratio (P/(P+S)) calculated from the peak height (S) of the substrate peptide and the peak height (P) of the phosphorylated peptide. The various kinases used for evaluation are as follows:
BTK, KDR, each subtype of PKCα to ι, each CDK of CDK2 to 9, FAK, TIE2, RAF1 and BRAF.

THP1-Dual-STING KO cells = test: Activity on THP1-Dual-STING KO cells: IRF pathway (Quanti-luc luminescence); type: cell-based; details: STING gene homozygous deficient THP1-Dual cells, 6 to 20,000 nM compound solutions, about 24 hours
Method: STING gene homozygous deficient THP1-Dual cells (THP1-Dual-STING KO cells (Invivogen) were suspended in RPMI medium to prepare 2×10^6 cells/mL cell suspension. 50 μL of cell suspensions were dispensed into a 96-well plate, to which 50 μL of 6 to 20,000 nM compound solutions were further added, followed by incubation at 37° C. for about 24 hours. 10 μL of the cell suspensions were collected from the respective wells, which were mixed with 50 μL of Quanti-luc (Invivogen), and then the activity of the IRF pathway was measured by detecting luminescence using a microplate reader.

IDO1 = molecular target: T1, IDO1 (Homo sapiens, UniProt P14902); test: Evaluation of IDO1 inhibitory activity (IDO1 Fluorogenic Inhibitor Screening Assay Kit); type: biochemical; details: compound solutions of 0.6, 2, 6, 20, 60 and 200 μmol/L added
T1 construct: His-tag; purchased BPS Bioscience
Method: The evaluation of IDO1 inhibitory activity was carried out using the IDO1 Fluorogenic Inhibitor Screening Assay Kit (BPS Bioscience). Specifically, IDO1 Fluorogenic Reaction Solution was dissolved, of which 180 μL were added to each well. Then, 10 μL of compounds at the respective concentrations of 0.6, 2, 6, 20, 60 and 200 μmol/L were added thereto. Further, after adding 10 μL of IDO1 His-Tag solution thereto, of which the mixtures were incubated at room temperature for 1 hour, and then 20 μL of Fluorescence Solution was added thereto, of which the mixtures were incubated at 37° C. for 4 hours. After standing them at room temperature for 10 minutes, the fluorescence was measured using a microplate reader (excitation: 400 nm, emission: 510 nm).

T1 sequence (P14902 whole entry): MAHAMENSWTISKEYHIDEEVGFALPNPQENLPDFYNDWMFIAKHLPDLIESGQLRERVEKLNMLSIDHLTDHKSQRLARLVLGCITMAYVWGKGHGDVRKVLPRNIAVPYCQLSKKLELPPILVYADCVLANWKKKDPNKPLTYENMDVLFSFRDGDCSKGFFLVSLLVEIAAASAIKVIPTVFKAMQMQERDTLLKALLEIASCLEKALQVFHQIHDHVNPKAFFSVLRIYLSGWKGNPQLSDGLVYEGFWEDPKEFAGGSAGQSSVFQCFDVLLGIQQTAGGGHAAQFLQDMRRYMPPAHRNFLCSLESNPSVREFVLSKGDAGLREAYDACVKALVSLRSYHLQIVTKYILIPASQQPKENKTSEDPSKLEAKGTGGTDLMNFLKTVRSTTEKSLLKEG

Row | EC50 (THP1-Dual cells) [nM] | Structure (SMILES) | other results
1 | 180 | COC(=O)c1cc(-c2ncc(-c3cn[nH]c3)c3onc(N)c23)c(F)cc1N [Example 1, methyl 2-amino-5-(3-amino-7-(1H-pyrazol-4-yl)isoxazolo[4,5-c]pyridin-4-yl)-4-fluorobenzoate] | tumor growth (tumor volume) [1]: almost completely suppressed the tumor growth; inhibitory activity against the evaluated kinases [2]: did not showed any significantly inhibit activities; IRF activating effect (THP1-Dual-STING KO cells): no IRF activating effect; IDO1 inhibitory activity (IDO1): did not show any IDO1 inhibitory activity
2 | 1930 | COc1cc(-c2ncc(-c3cn[nH]c3)c3onc(N)c23)c(F)cc1N [Example 2, 4-(4-amino-2-fluoro-5-methoxyphenyl)-7-(1H-pyrazol-4-yl)isoxazolo[4,5-c]pyridin-3-amine hydrochloride] | –
3 | 40 | CC(=O)c1cc(-c2ncc(-c3cn[nH]c3)c3onc(N)c23)c(F)cc1N [Example 3, 1-(2-amino-5-(3-amino-7-(1H-pyrazol-4-yl)isoxazolo[4,5-c]pyridin-4-yl)-4-fluorophenyl)ethan-1-one] | –
4 | 950 | CS(=O)(=O)c1cc(-c2ncc(-c3cn[nH]c3)c3onc(N)c23)c(F)cc1N [Example 4(3), 4-(4-amino-2-fluoro-5-(methylsulfonyl)phenyl)-7-(1H-pyrazol-4-yl)isoxazolo[4,5-c]pyridin-3-amine hydrochloride] | –
5 | 80 | NC(=O)c1cc(-c2ncc(-c3cn[nH]c3)c3onc(N)c23)c(F)cc1N [Example 4(5), 2-amino-5-(3-amino-7-(1H-pyrazol-4-yl)isoxazolo[4,5-c]pyridin-4-yl)-4-fluorobenzamide hydrochloride] | –
6 | 20 | CCC(=O)c1cc(-c2ncc(-c3cn[nH]c3)c3onc(N)c23)c(F)cc1N [Example 4(7), 1-(2-amino-5-(3-amino-7-(1H-pyrazol-4-yl)isoxazolo[4,5-c]pyridin-4-yl)-4-fluorophenyl)propan-1-one hydrochloride] | –
7 | 90 | CSc1cc(-c2ncc(-c3cn[nH]c3)c3onc(N)c23)c(F)cc1N [Example 4, 4-(4-amino-2-fluoro-5-(methylthio)phenyl)-7-(1H-pyrazol-4-yl)isoxazolo[4,5-c]pyridin-3-amine hydrochloride] | –

Further lines, the molecule ahead of its results:

Row | Structure (SMILES) | EC50 (THP1-Dual cells) [nM] | other results
8 | CCOC(=O)c1cc(-c2ncc(-c3cn[nH]c3)c3onc(N)c23)c(F)cc1N [Example 4(6), ethyl 2-amino-5-(3-amino-7-(1H-pyrazol-4-yl)isoxazolo[4,5-c]pyridin-4-yl)-4-fluorobenzoate hydrochloride] | 40 | –
9 | CCNC(=O)c1cc(-c2ncc(-c3cn[nH]c3)c3onc(N)c23)c(F)cc1N [Example 4(8), 2-amino-5-(3-amino-7-(1H-pyrazol-4-yl)isoxazolo[4,5-c]pyridin-4-yl)-N-ethyl-4-fluorobenzamide hydrochloride] | 20 | –
10 | CC(=O)c1cc(-c2ncc(-c3cn[nH]c3)c3onc(N)c23)ccc1N [Example 4(9), 1-(2-amino-5-(3-amino-7-(1H-pyrazol-4-yl)isoxazolo[4,5-c]pyridin-4-yl)phenyl)ethan-1-one hydrochloride] | 130 | –
11 | CNC(=O)c1cc(-c2ncc(-c3cn[nH]c3)c3onc(N)c23)ccc1N [Example 4(15), 2-amino-5-(3-amino-7-(1H-pyrazol-4-yl)isoxazolo[4,5-c]pyridin-4-yl)-N-methylbenzamide hydrochloride] | 100 | –
12 | CSc1cc(-c2ncc(-c3cn[nH]c3)c3onc(N)c23)c(Cl)cc1N [Example 4(16), 4-(4-amino-2-chloro-5-(methylthio)phenyl)-7-(1H-pyrazol-4-yl)isoxazolo[4,5-c]pyridin-3-amine hydrochloride] | 1000 | –
